Legend:
Experiment in all cases: relative viability (nuclei count vs DMSO), 5 days (fraction); higher = more cells survive
[1] = tested on: 201T
Procedure, shortened: (§1)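 Lung cancer cell lines in 1536-well plates got either a single drug or a fixed anchor-drug dose together with five library-drug doses (not always all listed) in √10 steps, by pin tool, on the day after seeding. Nuclei were counted after 5 days, and relative viability is the treated-to-vehicle ratio of nuclei counts. Values are medians of duplicate plates.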

[2] = tested on: BEN
Procedure, shortened: as §1

[3] = tested on: LU99A
Procedure, shortened: as §1

[4] = tested on: LCLC-97TM1
Procedure, shortened: as §1

[5] = tested on: NCI-H1975
Procedure, shortened: as §1

[6] = tested on: NCI-H1395
Procedure, shortened: as §1

[7] = tested on: H3255
Procedure, shortened: as §1

[8] = tested on: NCI-H358
Procedure, shortened: as §1

[9] = tested on: COR-L 105
Procedure, shortened: as §1

[10] = tested on: EPLC-272H
Procedure, shortened: as §1

[11] = tested on: NCI-H2087
Procedure, shortened: as §1

[12] = tested on: PC-3 [JPC-3]
Procedure, shortened: as §1

[13] = tested on: HCC-827
Procedure, shortened: as §1

[14] = tested on: SW 1573
Procedure, shortened: as §1

[15] = tested on: EKVX
Procedure, shortened: as §1

[16] = tested on: NCI-H647
Procedure, shortened: as §1

[17] = tested on: HCC-44
Procedure, shortened: as §1

[18] = tested on: HOP-62
Procedure, shortened: as §1

[19] = tested on: LOU-NH91
Procedure, shortened: as §1

[20] = tested on: NCI-H1666
Procedure, shortened: as §1

[21] = tested on: NCI-H2085
Procedure, shortened: as §1

[22] = tested on: NCI-H1437
Procedure, shortened: as §1

For `CC1(C)CCC(c2ccc(Cl)cc2)=C(CN2CCN(c3ccc(C(=O)NS(=O)(=O)c4ccc(N[C@H](CCN5CCOCC5)CSc5ccccc5)c(S(=O)(=O)C(F)(F)F)c4)cc3)CC2)C1` [Navitoclax] + CS(=O)(=O)N1CCN(Cc2cc3nc(-c4cccc5[nH]ncc45)nc(N4CCOCC4)c3s2)CC1 [Pictilisib] (partner 1 µM), the relative viability ([1]; first compound 0.005 µM) was 0.661, the relative viability ([1]; first compound 0.01581 µM) was 0.738 and the relative viability ([1]; first compound 0.05 µM) was 0.677. For the same molecule, the relative viability ([1]; first compound 0.1581 µM) was 0.65, the relative viability ([1]; first compound 0.5 µM) was 0.707 and the relative viability ([2]; first compound 0.005 µM) was 0.548. For the same molecule, the relative viability ([2]; first compound 0.01581 µM) was 0.678, the relative viability ([2]; first compound 0.05 µM) was 0.625 and the relative viability ([2]; first compound 0.1581 µM) was 0.602. The relative viability ([2]; first compound 0.5 µM) was 0.364, the relative viability ([3]; first compound 0.005 µM) was 0.361 and the relative viability ([3]; first compound 0.01581 µM) was 0.35. The relative viability ([3]; first compound 0.05 µM) was 0.336, the relative viability ([3]; first compound 0.1581 µM) was 0.34 and the relative viability ([3]; first compound 0.5 µM) was 0.325. It also gave a relative viability ([4]; first compound 0.005 µM) of 0.255, a relative viability ([4]; first compound 0.01581 µM) of 0.146 and a relative viability ([4]; first compound 0.05 µM) of 0.193. For the same molecule, the relative viability ([4]; first compound 0.1581 µM) was 0.187, the relative viability ([4]; first compound 0.5 µM) was 0.153 and the relative viability ([5]; first compound 0.005 µM) was 0.295. For the same molecule, the relative viability ([5]; first compound 0.01581 µM) was 0.32, the relative viability ([5]; first compound 0.05 µM) was 0.304 and the relative viability ([5]; first compound 0.1581 µM) was 0.287. For the same molecule, the relative viability ([5]; first compound 0.5 µM) was 0.235, the relative viability ([6]; first compound 0.005 µM) was 0.692 and the relative viability ([6]; first compound 0.01581 µM) was 0.645. For the same molecule, the relative viability ([6]; first compound 0.05 µM) was 0.563, the relative viability ([6]; first compound 0.1581 µM) was 0.818 and the relative viability ([6]; first compound 0.5 µM) was 0.67. For the same molecule, the relative viability ([7]; first compound 0.005 µM) was 0.524, the relative viability ([7]; first compound 0.01581 µM) was 0.528 and the relative viability ([7]; first compound 0.05 µM) was 0.549. The relative viability ([7]; first compound 0.1581 µM) was 0.45, the relative viability ([7]; first compound 0.5 µM) was 0.461 and the relative viability ([8]; first compound 0.005 µM) was 0.347. For the same molecule, the relative viability ([8]; first compound 0.01581 µM) was 0.352, the relative viability ([8]; first compound 0.05 µM) was 0.307 and the relative viability ([8]; first compound 0.1581 µM) was 0.379. The relative viability ([8]; first compound 0.5 µM) was 0.336, the relative viability ([9]; first compound 0.005 µM) was 0.352 and the relative viability ([9]; first compound 0.01581 µM) was 0.45. The relative viability ([9]; first compound 0.05 µM) was 0.41, the relative viability ([9]; first compound 0.1581 µM) was 0.368 and the relative viability ([9]; first compound 0.5 µM) was 0.308. It also gave a relative viability ([10]; first compound 0.005 µM) of 0.321, a relative viability ([10]; first compound 0.1581 µM) of 0.325 and a relative viability ([10]; first compound 0.5 µM) of 0.306. The relative viability ([11]; first compound 0.005 µM) was 0.806, the relative viability ([11]; first compound 0.01581 µM) was 0.976 and the relative viability ([11]; first compound 0.05 µM) was 0.54. It also gave a relative viability ([11]; first compound 0.1581 µM) of 1.02, a relative viability ([11]; first compound 0.5 µM) of 0.887 and a relative viability ([12]; first compound 0.005 µM) of 0.648. The relative viability ([12]; first compound 0.01581 µM) was 0.701, the relative viability ([12]; first compound 0.05 µM) was 0.87 and the relative viability ([12]; first compound 0.1581 µM) was 0.678. It also gave a relative viability ([12]; first compound 0.5 µM) of 0.75, a relative viability ([13]; first compound 0.005 µM) of 1.12 and a relative viability ([13]; first compound 0.01581 µM) of 1. It also gave a relative viability ([13]; first compound 0.05 µM) of 0.933, a relative viability ([13]; first compound 0.1581 µM) of 0.78 and a relative viability ([13]; first compound 0.5 µM) of 0.975. It also gave a relative viability ([14]; first compound 0.005 µM) of 0.466, a relative viability ([14]; first compound 0.01581 µM) of 0.54 and a relative viability ([14]; first compound 0.05 µM) of 0.464. It also gave a relative viability ([14]; first compound 0.1581 µM) of 0.389, a relative viability ([14]; first compound 0.5 µM) of 0.503 and a relative viability ([15]; first compound 0.005 µM) of 0.487. For the same molecule, the relative viability ([15]; first compound 0.01581 µM) was 0.611, the relative viability ([15]; first compound 0.05 µM) was 0.427 and the relative viability ([15]; first compound 0.1581 µM) was 0.41. It also gave a relative viability ([15]; first compound 0.5 µM) of 0.452, a relative viability ([16]; first compound 0.005 µM) of 0.539 and a relative viability ([16]; first compound 0.01581 µM) of 0.396. The relative viability ([16]; first compound 0.05 µM) was 0.385, the relative viability ([16]; first compound 0.1581 µM) was 0.422 and the relative viability ([16]; first compound 0.5 µM) was 0.453. For the same molecule, the relative viability ([17]; first compound 0.005 µM) was 0.656, the relative viability ([17]; first compound 0.01581 µM) was 0.641 and the relative viability ([17]; first compound 0.05 µM) was 0.849. It also gave a relative viability ([17]; first compound 0.1581 µM) of 0.57, a relative viability ([17]; first compound 0.5 µM) of 0.456 and a relative viability ([18]; first compound 0.005 µM) of 0.803. It also gave a relative viability ([18]; first compound 0.01581 µM) of 0.921, a relative viability ([18]; first compound 0.05 µM) of 0.5 and a relative viability ([18]; first compound 0.1581 µM) of 0.769. It also gave a relative viability ([18]; first compound 0.5 µM) of 1.17, a relative viability ([19]; first compound 0.005 µM) of 0.51 and a relative viability ([19]; first compound 0.01581 µM) of 0.513. It also gave a relative viability ([19]; first compound 0.05 µM) of 0.556, a relative viability ([19]; first compound 0.1581 µM) of 0.496 and a relative viability ([19]; first compound 0.5 µM) of 0.393. For the same molecule, the relative viability ([20]; first compound 0.005 µM) was 0.562, the relative viability ([20]; first compound 0.01581 µM) was 0.609 and the relative viability ([20]; first compound 0.05 µM) was 0.503. For the same molecule, the relative viability ([20]; first compound 0.1581 µM) was 0.394, the relative viability ([20]; first compound 0.5 µM) was 0.475 and the relative viability ([21]; first compound 0.005 µM) was 0.449. It also gave a relative viability ([21]; first compound 0.01581 µM) of 0.49, a relative viability ([21]; first compound 0.05 µM) of 0.475 and a relative viability ([21]; first compound 0.1581 µM) of 0.507. The relative viability ([21]; first compound 0.5 µM) was 0.596, the relative viability ([22]; first compound 0.005 µM) was 0.409 and the relative viability ([22]; first compound 0.01581 µM) was 0.537. It also gave a relative viability ([22]; first compound 0.05 µM) of 0.501, a relative viability ([22]; first compound 0.1581 µM) of 0.445 and a relative viability ([22]; first compound 0.5 µM) of 0.477.

— the supplement of paper PMC10307832
